Laboratory results: patent US20080125432A1 (Devgen NV, priority 2004, published 2008)

Key:
[1] = target: T1, human Kv4.3/KChIP2.2 potassium channel (Homo sapiens, UniProt Q9UK17); test: Whole cell patch clamp, CHO-K1 cells stably expressing human Kv4.3/KChIP2.2; assay type: cell-based; conditions: estimated by Hill fit with hill=1, ymax=100; tested at 2 μM, n=2; read-out: IC50 (μM) Kv4.3
T1 construct: expressed in transfected cells
T1 sequence (Q9UK17 1-655): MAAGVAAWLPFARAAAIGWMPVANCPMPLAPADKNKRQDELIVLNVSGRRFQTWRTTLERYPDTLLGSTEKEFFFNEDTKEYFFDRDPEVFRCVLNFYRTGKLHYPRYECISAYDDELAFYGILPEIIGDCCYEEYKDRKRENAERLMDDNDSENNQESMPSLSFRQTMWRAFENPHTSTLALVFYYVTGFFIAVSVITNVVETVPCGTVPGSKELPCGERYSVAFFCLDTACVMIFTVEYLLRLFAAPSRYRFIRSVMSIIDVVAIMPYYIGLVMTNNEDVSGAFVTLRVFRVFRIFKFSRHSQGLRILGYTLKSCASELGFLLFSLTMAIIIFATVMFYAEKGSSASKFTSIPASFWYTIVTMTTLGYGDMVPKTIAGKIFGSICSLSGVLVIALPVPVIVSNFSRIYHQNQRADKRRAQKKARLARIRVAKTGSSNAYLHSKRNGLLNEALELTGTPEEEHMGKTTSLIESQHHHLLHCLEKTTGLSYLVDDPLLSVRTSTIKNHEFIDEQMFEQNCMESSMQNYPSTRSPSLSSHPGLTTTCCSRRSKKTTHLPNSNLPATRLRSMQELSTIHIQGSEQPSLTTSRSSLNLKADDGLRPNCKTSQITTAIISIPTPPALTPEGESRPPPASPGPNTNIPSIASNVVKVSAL

[2] = system: human Kv4.3/KChIP2.2 potassium channel; test: as above; assay type: cell-based; conditions: selectivity for Kv4.3 vs hERG (Patch Clamp test); >5 considered very selective

| IC50 [1] [µM] | Structure (SMILES) | Ratio hERG/Kv4.3 [2] |
| --- | --- | --- |
| 0.83 | Cc1nc(Nc2ccc(Br)cc2)sc1C(=O)NCc1ccc(N(C)C)cc1 [Compound 64, 2-(4-bromo-phenylamino)-4-methyl-thiazole-5-carboxylic acid 4-dimethylamino-benzylamide] | >120 |
| 0.18 | COc1cc(CNC(=O)c2sc(Nc3ccc(Br)cc3)nc2C)cc(OC)c1 [Compound 65, 2-(4-bromo-phenylamino)-4-methyl-thiazole-5-carboxylic acid 3,5-dimethoxy-benzylamide] | 9.1 |
| 0.54 | COc1ccccc1Nc1nc(C)c(C(=O)N[C@H]2CCC[C@@H]2OCc2ccccc2)s1 [Compound 68, 2-(2-methoxy-phenylamino)-4-methyl-thiazole-5-carboxylic acid (1S,2S)-2-(benzyloxycyclopent-1-yl) amide] | 14.7 |
